Entries after “also recorded” stand apart in the source; their conditions may differ.
Key:
MysD = experiment: In vitro MysD reaction with amino acid substrates (LC-HRMS detection of MAA products); format: biochemical, Nostoc linckia NIES-25; details: 5 mM amino acid, 50 uM mycosporine-glycine, 5 mM ATP, 0.5 uM MysD, pH 8.0, room temperature, 4 hours
Procedure: The reaction solution contained 50 mM HEPES, pH 8.0, 10 mM MgCl2, 50 uM mycosporine-glycine (MG), 5 mM amino acid substrates, and 5 mM ATP. The reactions were initiated by adding 0.5 uM MysD and then carried out at room temperature for 4 hours. The reactions were then terminated and centrifuged.
In Vitro MysD Reactions. MG was purified from extracts of E. coli expressing MysAB2C by HPLC and used as the substrate for the MysD reactions. The quality of MG was calculated based on its extinction coefficient (28,100 M^−1cm^−1). The MysD reactions included MG (50 μM), Mg^2+ (10 mM), unnatural amino acid substrates (5 mM), and ATP (5 mM) in 50 mM HEPES, pH 8.0. The reactions were initiated by adding MysD (0.5 μM) and then incubated at room temperature for 4 hours. All reactions were quenched by heat inactivation at 95° C. for 10 min. After centrifugation at 20,000×g for 15 min, the clear supernatants were collected for LC-HRMS analysis.
The reactions were terminated and then analyzed in the HPLC and/or LC-MS analysis.
HPLC and LC-MS Analysis. Samples were analyzed on a Shimadzu Prominence UHPLC system (Kyoto, Japan) coupled with a PDA detector. Unless stated elsewhere, the following HPLC procedure was performed. The compounds were separated on a Phenomenex Luna C8 column (4.6×250 mm, 5 μm) using the following HPLC program: 2% B for 15 min, 2-90% B gradient in 2 min, 90% B in 2 min, 90-2% in 2 min, and re-equilibration in 2% B for 6 min. The A phase was water with 0.1% formic acid and the B phase was methanol. The flow rate was set at 0.5 mL/min. LC-HRMS and HRMS/MS experiments were conducted on a Thermo Scientific Q Exactive Focus mass spectrometer with a Dionex Ultimate RSLC 3000 uHPLC system, equipped with the H-ESI II probe on an Ion Max API Source. Methanol (B)/water (A) containing 0.1% formic acid were used as mobile phases. The eluents from the first 3 min were diverted to waste by a diverting valve. MS1 signals were acquired under the Full MS positive ion mode, covering a mass range of m/z 150-2000, with resolution at 35 000 and AGC target at 1×10^6.

[1] = cited from earlier work

Compound	use as amino acid substrate by MysD to produce MAA products (MysD)	further results
NC[C@@H](N)C(=O)O [(R)-2,3-diaminopropionic acid]	not able to take	–
NC[C@H](N)C(=O)O [(S)-2,3-diaminopropionic acid]	could be used by MysD	–
C=C[C@H](N)C(=O)O [(S)-2-aminobut-3-enoic acid]	could be used by MysD	–
C[C@@H](O)[C@H](N)C(=O)O [L-threonine]	could be used by MysD; also recorded: best substrate	–
COC1=C(NCC(=O)O)C[C@@](O)(CO)CC1=O [MG, mycosporine-glycine]	–	extinction coefficient ([1]; used to calculate the quantity of MG): 28,100 M^−1cm^−1
COC1=C(NCC(=O)O)C[C@@](O)(CO)CC1=N[C@H](C(=O)O)[C@@H](C)O [porphyra-334]	–	maximal absorption wavelength ([1]; natural MAA given as comparison value): 334 nm

— patent US20260272801A1, “BIOCATALYTIC SYNTHESIS OF UNNATURAL MYCOSPORINE-LIKE AMINO ACIDS” (University of Florida Research Foundation, Incorporated, priority 2022, published 2026)
